Results reported in patent publication US20230172206A1 (BASF SE, priority 2020, published 2023).
Where “and” joins values, the source holds several entries; their conditions need not be identical. Equal entries are not always repeated.

Test system: Phakopsora pachyrhizi (F129L)
Assay: Protective control of soybean rust on soybeans (PHAKPA P2)
Assay type: in vivo
Conditions: protective P2, 4 ppm, F129L isolate

| Structure (SMILES) | % PHAKPA (F129L) Disease level P2 at 4 ppm [%] |
| --- | --- |
| CNC(=O)/C(=N/OC)c1cccc(C)c1CO/N=C(/c1ccccc1)C(F)(F)F [compound 458] | 93 |
| CNC(=O)/C(=N/OC)c1cccc(OC)c1CO/N=C(\C)c1cccc(C(F)(F)F)c1 [compound 461] | 26 |
| CO/C=C(/C(=O)OC)c1cccc(C)c1CO/N=C(\C)c1ccccc1OC(F)(F)F [compound 462] | 37 |
| CO/C=C(/C(=O)OC)c1cccc(C)c1CO/N=C(\C)c1ccc(OC(F)(F)F)cc1Cl [compound 463] | 6 |
| CO/C=C(/C(=O)OC)c1cccc(C)c1CO/N=C(\C)c1ccc(OC)cc1C(F)(F)F [compound 464] | 1 |

Same assay, conditions: protective P2, 16 ppm, F129L isolate

| Structure (SMILES) | % PHAKPA (F129L) Disease level P2 at 16 ppm [%] |
| --- | --- |
| CNC(=O)/C(=N/OC)c1cccc(C)c1CO/N=C(/c1ccccc1)C(F)(F)F [compound 458] | 57 |
| CNC(=O)/C(=N/OC)c1cccc(OC)c1CO/N=C(\C)c1cccc(C(F)(F)F)c1 [compound 461] | 2 |
| CO/C=C(/C(=O)OC)c1cccc(C)c1CO/N=C(\C)c1ccccc1OC(F)(F)F [compound 462] | 6 |
| CO/C=C(/C(=O)OC)c1cccc(C)c1CO/N=C(\C)c1ccc(OC(F)(F)F)cc1Cl [compound 463] | 0 |
| CO/C=C(/C(=O)OC)c1cccc(C)c1CO/N=C(\C)c1ccc(OC)cc1C(F)(F)F [compound 464] | 0 |

Same assay, conditions: protective, inoculation 2 days after spraying, 16 ppm, % diseased leaf area

| Structure (SMILES) | PHAKPA (F129L) Disease level (%) P2 at 16 ppm [%] |
| --- | --- |
| CNC(=O)/C(=N/OC)c1ccccc1CO/N=C(\C)c1cc(F)ccc1F [reference compound] | 1 |

Test system: Phakopsora pachyrhizi (F129L)
Assay: Protective control of soybean rust on soybeans (PHAKPA P6)
Assay type: in vivo
Conditions: protective P6, 4 ppm, F129L isolate

| Structure (SMILES) | % PHAKPA (F129L) Disease level P6 at 4 ppm [%] |
| --- | --- |
| CNC(=O)/C(=N/OC)c1cccc(C)c1CO/N=C(/c1ccccc1)C(F)(F)F [compound 458] | 83 |
| CNC(=O)/C(=N/OC)c1cccc(OC)c1CO/N=C(\C)c1cccc(C(F)(F)F)c1 [compound 461] | 52 |
| CO/C=C(/C(=O)OC)c1cccc(C)c1CO/N=C(\C)c1ccccc1OC(F)(F)F [compound 462] | 55 |
| CO/C=C(/C(=O)OC)c1cccc(C)c1CO/N=C(\C)c1ccc(OC(F)(F)F)cc1Cl [compound 463] | 3 |
| CO/C=C(/C(=O)OC)c1cccc(C)c1CO/N=C(\C)c1ccc(OC)cc1C(F)(F)F [compound 464] | 8 |

Same assay, conditions: protective P6, 16 ppm, F129L isolate

| Structure (SMILES) | % PHAKPA (F129L) Disease level P6 at 16 ppm [%] |
| --- | --- |
| CNC(=O)/C(=N/OC)c1cccc(C)c1CO/N=C(/c1ccccc1)C(F)(F)F [compound 458] | 50 |
| CNC(=O)/C(=N/OC)c1cccc(OC)c1CO/N=C(\C)c1cccc(C(F)(F)F)c1 [compound 461] | 6 |
| CO/C=C(/C(=O)OC)c1cccc(C)c1CO/N=C(\C)c1ccccc1OC(F)(F)F [compound 462] | 10 |
| CO/C=C(/C(=O)OC)c1cccc(C)c1CO/N=C(\C)c1ccc(OC(F)(F)F)cc1Cl [compound 463] | 0 |
| CO/C=C(/C(=O)OC)c1cccc(C)c1CO/N=C(\C)c1ccc(OC)cc1C(F)(F)F [compound 464] | 0 |

Same assay, conditions: protective, inoculation six days after spraying, 16 ppm, % diseased leaf area

| Structure (SMILES) | PHAKPA (F129L) Disease level (%) P6 at 16 ppm [%] |
| --- | --- |
| CNC(=O)/C(=N/OC)c1ccccc1CO/N=C(\C)c1cc(F)ccc1F [reference compound] | 22 |

Same assay, conditions: protective, inoculation six days after spraying, 16 ppm, % diseased leaf area; listed as Ex. 9

| Structure (SMILES) | PHAKPA (F129L) Disease level (%) P6 at 16 ppm |
| --- | --- |
| CO/N=C(/C(=O)OC)c1cccc(C)c1CO/N=C(\C)c1cccc(C(F)(F)F)c1 [compound 9] | 4% and 1% |

Same assay, conditions: protective, inoculation six days after spraying, 16 ppm, % diseased leaf area; listed as Ex. 76

| Structure (SMILES) | PHAKPA (F129L) Disease level (%) P6 at 16 ppm |
| --- | --- |
| CO/N=C(/C(=O)OC)c1cccc(C)c1CO/N=C(\C)c1cccc(C)c1 [compound 76] | 0% and 4% |

Test system: Phakopsora pachyrhizi (wt)
Assay: Protective control of soybean rust on detached soybean leaves (PHAKPA P1 DL), Qo inhibitor-sensitive wt isolate
Assay type: in vivo
Conditions: test concentration 0.3 ppm

| Structure (SMILES) | PHAKPA P1 DL Disease level (%) Qo I-sensitive wt isolate (0 % F129L) [%] |
| --- | --- |
| Cc1cccc(-n2nnn(C)c2=O)c1COc1ccn(-c2ccc(Cl)cc2)n1 [drawing 932, reference compound] | 78 |

Same assay, conditions: test concentration 1 ppm

| Structure (SMILES) | PHAKPA P1 DL Disease level (%) Qo I-sensitive wt isolate (0 % F129L) [%] |
| --- | --- |
| Cc1cccc(-n2nnn(C)c2=O)c1COc1ccn(-c2ccc(Cl)cc2)n1 [drawing 932, reference compound] | 80 |

Same assay, conditions: test concentration 3 ppm

| Structure (SMILES) | PHAKPA P1 DL Disease level (%) Qo I-sensitive wt isolate (0 % F129L) [%] |
| --- | --- |
| Cc1cccc(-n2nnn(C)c2=O)c1COc1ccn(-c2ccc(Cl)cc2)n1 [drawing 932, reference compound] | 77 |

Same assay, conditions: test concentration 10 ppm

| Structure (SMILES) | PHAKPA P1 DL Disease level (%) Qo I-sensitive wt isolate (0 % F129L) [%] |
| --- | --- |
| Cc1cccc(-n2nnn(C)c2=O)c1COc1ccn(-c2ccc(Cl)cc2)n1 [drawing 932, reference compound] | 48 |

Same assay, conditions: test concentration 30 ppm

| Structure (SMILES) | PHAKPA P1 DL Disease level (%) Qo I-sensitive wt isolate (0 % F129L) [%] |
| --- | --- |
| Cc1cccc(-n2nnn(C)c2=O)c1COc1ccn(-c2ccc(Cl)cc2)n1 [drawing 932, reference compound] | 30 |

Same assay, conditions: test concentration 100 ppm

| Structure (SMILES) | PHAKPA P1 DL Disease level (%) Qo I-sensitive wt isolate (0 % F129L) [%] |
| --- | --- |
| Cc1cccc(-n2nnn(C)c2=O)c1COc1ccn(-c2ccc(Cl)cc2)n1 [drawing 932, reference compound] | 18 |

Same assay, conditions: test concentration 300 ppm

| Structure (SMILES) | PHAKPA P1 DL Disease level (%) Qo I-sensitive wt isolate (0 % F129L) [%] |
| --- | --- |
| Cc1cccc(-n2nnn(C)c2=O)c1COc1ccn(-c2ccc(Cl)cc2)n1 [drawing 932, reference compound] | 5 |

Test system: Phakopsora pachyrhizi (F129L)
Assay: Protective control of soybean rust on detached soybean leaves (PHAKPA P1 DL), F129L isolate
Assay type: in vivo
Conditions: test concentration 0.3 ppm

| Structure (SMILES) | PHAKPA P1 DL Disease level (%) Qo I-resistant F129L isolate (100 % F129L) [%] |
| --- | --- |
| Cc1cccc(-n2nnn(C)c2=O)c1COc1ccn(-c2ccc(Cl)cc2)n1 [drawing 934, reference compound] | 88 |

Same assay, conditions: test concentration 1 ppm

| Structure (SMILES) | PHAKPA P1 DL Disease level (%) Qo I-resistant F129L isolate (100 % F129L) [%] |
| --- | --- |
| Cc1cccc(-n2nnn(C)c2=O)c1COc1ccn(-c2ccc(Cl)cc2)n1 [drawing 934, reference compound] | 90 |

Same assay, conditions: test concentration 3 ppm

| Structure (SMILES) | PHAKPA P1 DL Disease level (%) Qo I-resistant F129L isolate (100 % F129L) [%] |
| --- | --- |
| Cc1cccc(-n2nnn(C)c2=O)c1COc1ccn(-c2ccc(Cl)cc2)n1 [drawing 934, reference compound] | 95 |

Same assay, conditions: test concentration 10 ppm

| Structure (SMILES) | PHAKPA P1 DL Disease level (%) Qo I-resistant F129L isolate (100 % F129L) [%] |
| --- | --- |
| Cc1cccc(-n2nnn(C)c2=O)c1COc1ccn(-c2ccc(Cl)cc2)n1 [drawing 934, reference compound] | 92 |

Same assay, conditions: test concentration 30 ppm

| Structure (SMILES) | PHAKPA P1 DL Disease level (%) Qo I-resistant F129L isolate (100 % F129L) [%] |
| --- | --- |
| Cc1cccc(-n2nnn(C)c2=O)c1COc1ccn(-c2ccc(Cl)cc2)n1 [drawing 934, reference compound] | 90 |

Same assay, conditions: test concentration 100 ppm

| Structure (SMILES) | PHAKPA P1 DL Disease level (%) Qo I-resistant F129L isolate (100 % F129L) [%] |
| --- | --- |
| Cc1cccc(-n2nnn(C)c2=O)c1COc1ccn(-c2ccc(Cl)cc2)n1 [drawing 934, reference compound] | 65 |

Same assay, conditions: test concentration 300 ppm

| Structure (SMILES) | PHAKPA P1 DL Disease level (%) Qo I-resistant F129L isolate (100 % F129L) [%] |
| --- | --- |
| Cc1cccc(-n2nnn(C)c2=O)c1COc1ccn(-c2ccc(Cl)cc2)n1 [drawing 934, reference compound] | 52 |

Test system: Septoria tritici
Assay: Micro titer plate test against leaf blotch on wheat (SEPTTR)
Assay type: cell-based
Conditions: 0.25 ppm, 7 days after inoculation, relative to compound-free control (100%)

| Structure (SMILES) | Fungal growth (%) SEPTTR [%] |
| --- | --- |
| CO/N=C(/C(=O)OC)c1cccc(C)c1CO/N=C(\C)c1cccc(C)c1 [compound 76] | 0 |

Test system: Alternaria solani (wt)
Assay: not given
Assay type: cell-based
Conditions: 0.016 ppm, 7 days after inoculation, relative to compound-free control (100%)

| Structure (SMILES) | Fungal growth (%) ALTESO wt [%] |
| --- | --- |
| CO/N=C(/C(=O)OC)c1cccc(C)c1CO/N=C(\C)c1cccc(C(F)(F)F)c1 [compound 9] | 73 |
| CO/N=C(/C(=O)OC)c1cccc(C)c1CO/N=C(\C)c1cccc(C)c1 [compound 76] | 55 |

Test system: Alternaria solani (F129L)
Assay: Micro titer plate test against early blight (ALTESO F129L)
Assay type: cell-based
Conditions: 0.016 ppm, 7 days after inoculation, relative to compound-free control (100%)

| Structure (SMILES) | Fungal growth (%) ALTESO F129L [%] |
| --- | --- |
| CO/N=C(/C(=O)OC)c1cccc(C)c1CO/N=C(\C)c1cccc(C)c1 [compound 76] | 37 |

Test system: Cercospora sojina
Assay: not given
Assay type: cell-based
Conditions: 4 ppm, 7 days after inoculation, relative to compound-free control (100%)

| Structure (SMILES) | Fungal growth (%) CERCSO [%] |
| --- | --- |
| CO/N=C(/C(=O)OC)c1cccc(C)c1CO/N=C(\C)c1cccc(C(F)(F)F)c1 [compound 9] | 11 |
| CO/N=C(/C(=O)OC)c1cccc(C)c1CO/N=C(\C)c1cccc(C)c1 [compound 76] | 28 |
